These results are taken from ChEMBL document CHEMBL1156075, “5,5'- and 6,6'-dialkyl-5,6-dihydro-1H-pyridin-2-ones as potent inhibitors of HCV NS5B polymerase” (Bioorg Med Chem Lett, 2009).

Data set [1] is described as follows: Clearance in cynomolgus monkey at 1 mg/kg, iv. Set-up: dose 1 mg/kg, route intravenous. In kind it is ADME, organism-based, Macaca fascicularis. The conditions noted are these: in vivo.
Data set [2] can be described thus: Apparent permeability from apical to basolateral side in human Caco-2 cells at 10 uM after 3 hrs. In kind it is ADME, cell-based.
The subject of the next data set is Hepatitis C virus. Kind of data set: microbe, parasite or virus in culture. Particulars: genotype 1b, Huh-7, 72 h.
Data set [3] can be described thus: in vitro. Particulars: human, Huh7/C24 cells.
Description: Cytotoxicity against human Huh7/C24 cells after 72 hrs by bDNA assay
Data set [4] is described as follows: in vitro. The conditions noted are these: human, liver microsomes. (Liver microsomes are vesicles of endoplasmic reticulum, rich in cytochrome P450 enzymes.)
Data set [5] can be described thus: Clearance in cynomolgus monkey at 1 […]. Set-up: dose 1 mg/kg. Particulars: in vivo. In kind it is ADME, organism-based, Macaca fascicularis.
Data set [6] relates to Cynomolgus monkey. Particulars: in vivo, po, 1 mg/kg.
For data set [7], the system named is Cynomolgus monkey. Particulars: in vivo, iv, 1 mg/kg.
Data set [8] in a line: in vitro. Particulars: cynomolgus monkey, liver microsomes.
The nature of data set [9]: Oral bioavailability in cynomolgus monkey at 1 mg/kg, po. In kind it is ADME, organism-based, Macaca fascicularis. Particulars: in vivo.
Data set [10] in a line: in vitro. The conditions noted are these: human, liver microsomes. The source holds these as a separate data set.
Data set [11] in a line: in vitro. The conditions noted are these: human, liver microsomes. This is another data set of the same source.

A word on the clearance: it is a measure of how efficiently the substance is removed, as volume per time. Usually Papp A→B stands for how fast a substance crosses the layer from the apical side. For orientation: EC50 means the concentration needed to bring the measured effect to its halfway point. As usually defined, the CC50 is the concentration giving 50% cytotoxicity. The term half-life denotes the time in which the quantity being followed falls by half. As a reminder, the CL/F is clearance divided by bioavailability, as obtained after extravascular dosing. As usually defined, the AUC is the area under the concentration-time curve, a measure of exposure. The term bioavailability denotes the share of a dose that reaches the circulation, judged against a reference dose that is usually intravenous.

The structures appear in SMILES notation.

`CS(=O)(=O)Nc1ccc2c(c1)S(=O)(=O)N=C(C1=C(O)[C@@H]3CCC[C@@H]3N(Cc3ccc(F)cc3)C1=O)N2` gave a clearance in data set [1] of 0.0378 L/h/kg. The apical-to-basolateral permeability (Papp A→B) at 3 h, 10 µM in data set [2] was determined as 16 nm/s. In addition, in the data set on Hepatitis C virus, the response was half-maximal at 0.016 µM (EC50). In addition, the CC50 at 72 h in “in vitro [3]” was above 100 µM. Besides, the half-life at 5 µM in the data set “in vitro [4]” and in “in vitro [8]” was above 60 min in each case. Besides, the CL/F in [5] came out at 0.0378 L/h/kg. Also, the exposure (AUC) in the data set on Cynomolgus monkey [6] was 6.04 µg·h/mL; in the data set with Cynomolgus monkey [7], 29.1 µg·h/mL. In addition, the bioavailability in data set [9] was 21%.
On to `CC(C)(C)CC[C@]1(C)CN(C2CCCC2)C(=O)C(C2=NS(=O)(=O)c3cc(NS(C)(=O)=O)ccc3N2)=C1O`, for which the EC50 in the data set on Hepatitis C virus was determined as 0.31 µM. The compound further registered a half-maximal cytotoxic concentration (CC50) at 72 h in “in vitro [3]” above 10 µM. The half-life at 5 µM in the data set “in vitro [10]” was 1.6 min; in “in vitro [11]” it was above 60 min.
As to `CC(C)(C)CC[C@]1(C)CN(C2CCC2)C(=O)C(C2=NS(=O)(=O)c3cc(NS(C)(=O)=O)ccc3N2)=C1O`, the EC50 with Hepatitis C virus amounted to 0.46 µM. Further, the CC50 at 72 h in “in vitro [3]” is above 1 µM. In addition, the half-life at 5 µM in “in vitro [10]” is 3 min; in “in vitro [11]” it was above 60 min.
In the data set on Hepatitis C virus, `C[C@@]1(CCC2CC2)CN(C2CCCC2)C(=O)C(C2=NS(=O)(=O)c3cc(NS(C)(=O)=O)ccc3N2)=C1O` had an EC50 of 0.17 µM. For the same compound, the CC50 at 72 h in “in vitro [3]” was above 10 µM. Further, the half-life at 5 µM in the data set “in vitro [10]” was 3.7 min; in “in vitro [11]”, above 60 min.
In turn, `CC(C)(C)CC[C@]1(C)CN(C2CCCCC2)C(=O)C(C2=NS(=O)(=O)c3cc(NS(C)(=O)=O)ccc3N2)=C1O` gave an EC50 with Hepatitis C virus of 1.4 µM. For the same compound, the CC50 at 72 h in the data set “in vitro [3]” was above 10 µM. Also, the half-life at 5 µM in “in vitro [10]” was 1.4 min; in the data set “in vitro [11]”, above 60 min.
`C[C@@]1(CCC2CC2)CN(C2CCC2)C(=O)C(C2=NS(=O)(=O)c3cc(NS(C)(=O)=O)ccc3N2)=C1O` gave an EC50 in the data set with Hepatitis C virus of 0.15 µM. Further, the CC50 at 72 h in “in vitro [3]” was above 1 µM. In addition, the values for the half-life at 5 µM in the data set “in vitro [10]” and in “in vitro [11]” were 5.1 min and above 60 min, respectively.
The compound `CCC[C@]1(C)CN(C2CCC2)C(=O)C(C2=NS(=O)(=O)c3cc(NS(C)(=O)=O)ccc3N2)=C1O` gave an EC50 with Hepatitis C virus of 8.5 µM. Further, the values for the half-life at 5 µM in the data set “in vitro [10]” and in “in vitro [11]” were 2.8 min and above 60 min, respectively.
Compound `CC(C)CC[C@]1(C)CN(C2CCC2)C(=O)C(C2=NS(=O)(=O)c3cc(NS(C)(=O)=O)ccc3N2)=C1O` gave a clearance in data set [1] of 0.282 L/h/kg. The Papp A→B at 3 h, 10 µM in data set [2] turned out to be 29 nm/s. For the same compound, the EC50 in the data set on Hepatitis C virus is 0.014 µM. In “in vitro [3]”, this compound came in with a CC50 at 72 h above 10 µM. In addition, the half-life at 5 µM in the data set “in vitro [4]” was 2.2 min; in the data set “in vitro [8]”, 55 min. Further, the CL/F in data set [5] was determined as 0.282 L/h/kg. For the same compound, the AUC stood at 0.556 µg·h/mL in the data set on Cynomolgus monkey [6] and 3.56 µg·h/mL in the data set on Cynomolgus monkey [7]. Besides, the bioavailability in [9] amounted to 16%.
On to `CC[C@@]1(CCC(C)C)CN(C2CCCC2)C(=O)C(C2=NS(=O)(=O)c3cc(NS(C)(=O)=O)ccc3N2)=C1O`, for which, in the data set with Hepatitis C virus, a half-maximal effect (EC50) was put at 0.3 µM. Also, the CC50 at 72 h in the data set “in vitro [3]” was above 1 µM. In addition, the half-life at 5 µM in “in vitro [10]” was 3 min; in the data set “in vitro [11]”, above 60 min.
